Reference: patent US6515197B1, “Transgenic mouse expressing a polynucleotide encoding a human ataxin-2 polypeptide” (Cedars-Sinai Medical Center, priority 2000, dated 2003)

System: proteasomal pathway
Assay: lactacystin treatment of 293T cells transfected with SCA2 constructs, western blot
Format: cell-based
Experimental: To further confirm that the 42 kD fragment was generated preferably by ataxin-2 with an expanded polyQ tract, and to investigate whether mutant ataxin-2 was ubiquitinated, 293T cells were transfected with pEGFP-SCA2(Q22) or pEGFP-SCA2(Q58), followed by treatment with lactacystin for 24 hours to inhibit the proteasomal pathway. Briefly, to generate GFP fusion with SCA2, a full-length SCA2 cDNA including nucleotides 145 to 4,481 (Pulst et al., Nature Genet., 14:269-276 (1996)) was assembled in the pBluescript vector with 22 or 58 CAG repeats. To generate ataxin-2 expression plasmids, the full-length SCA2 cDNA containing either the 22 or 58 CAG repeat was shuttled into the pEGFPC2 (Clontech; Palo Alto Calif.) or pcDNA vectors (Invitrogen; Carlsbad Calif.). These constructs were named pEGFP-SCA22, pEGFP-SCA58, pcDNA-SCA22 or pcDNA-SCA58.
Transient expression of pEGFP-SCA2 constructs was analyzed in 293T cells. To investigate ubiquitination of ataxin-2, 293T cells growing at 60% confluency in 100-mm Petri dishes were transfected with either pEGFP-SCA2 or pcDNA-SCA2 constructs (10 μg) containing either 22 or 58 CAG repeats. Transfected cells were grown overnight and then treated with culture medium with or without lactacystin (10 μM) for 24 h. Cells were incubated with triple detergent buffer (0.5% sodium dodecyl sulfate (SDS), 1% Triton-X 100, 0.5% deoxycholate, 100 mM Tris-HCl, pH 8.0, 150 mM NaCl, and Sigma mammalian protease inhibitors cocktail (Sigma; St. Louis Mo.)) for 1 h on ice with occasional vortexing. Protein extracts were centrifuged at maximum speed in an Eppendorf microfuge at 4° C. for 30 min, and pellets were resuspended in triple detergent buffer. Both protein extract and pellet suspension were stored at −70° C. For western-blot analysis, 100 μg total protein extract per lane was mixed with SDS-polyacrylamide gel electrophoresis (PAGE) sample buffer and incubated for 2 h at 37° C. before loading on to a 4-15% SDS-PAGE gradient gel. Western blots were detected with SCA2A, 1C2 and ubiquitin antibodies.
Western blots were performed on transfected 293 cell protein extracts and insoluble pellets using the GFP or ubiquitin antibody. Untreated cells served as controls. The GFP antibody detected the full-length GFP-ataxin-2 with Q22 and Q58 at 200 kD and an additional band at 70 kD in 293T cells transfected with pEGFP-SCA2(Q58). Neither the 70 kD nor the 200 kD proteins were detected in untransfected 293T protein extracts.
To investigate whether the GFP fusion caused any interference with ubiquitin conjugation, 293T cells were transfected with pcDNA-SCA2(Q22) or pcDNA-SCA2(58) and treated with lactacystin.

Compound: CC(=O)N[C@@H](CSC(=O)[C@]1([C@@H](O)C(C)C)NC(=O)[C@H](C)[C@@H]1O)C(=O)O [lactacystin]
- levels of GFP-tagged ataxin-2 (293T cells transfected with pEGFP-SCA2(Q22) or (Q58), lactacystin 10 μM for 24 h, versus untreated cells, GFP antibody): increased levels
- levels of ubiquitin-conjugated protein complexes (293T cells transfected with pEGFP-SCA2(Q22) or (Q58), lactacystin 10 μM for 24 h, versus untreated cells, ubiquitin antibody): increased levels
- total amount of ataxin-2(Q58) (p180) (293T cells transfected with pcDNA-SCA2(58), lactacystin-treated, 1C2 or ubiquitin antibodies): increased
- formation of large ataxin-2 aggregates (293T cells transfected with pcDNA-SCA2(Q22) or pcDNA-SCA2(58), lactacystin-treated, western blot): no large ataxin-2 aggregates were found
